From patent publication US10525073B2, “Method for improving kidney and/or heart function in patients with kidney disease” (MacKay Memorial Hospital, priority 2015, dated 2020)

How the values were obtained:
CKD rats [1] = assay: Blood urine nitrogen (BUN) and serum creatine (CR) levels in 5/6 nephrectomy CKD rats; format: in vivo, Sprague Dawley rats; conditions: 5/6 nephrectomy rats
Protocol: Sprague Dawley rats (7 weeks old) were kept in pathogen-free environment under 12:12 light-dark cycle with food and water provided ad libitum, ambient temperature and relative humidity were respectively set at 24±2° C. and 50±20%. All procedures involving animal studies of the present disclosure comply with the “Guideline for the Care and Use of Laboratory Animals” issued by The Chinese-Taipei Society of Laboratory Animal Sciences. SD rats (about 10 weeks old) scheduled to undergo 5/6 nephrectomy or sham surgery were anesthetized by Zoletil 50/Xylazine (6 mg/1.3 mg/Kg, i.p.). Then, the left kidney was exposed, and the upper and lower poles were tied with a suture line, followed by right nephrectomy. The peritoneum and skin were then sutured, and the animals were returned to their individual cages. For animals underwent sham surgery, the left kidney was exposed in similar manner, but was then placed back into the abdominal cavity without further treatment, peritoneum and skin were then sutured. Two weeks after sham or 5/6 nephrectomy surgery, the animals were subjected to a 24-hour urine collection and non-invasive tail blood pressure measurement every 4 weeks. Four weeks after the surgery, rats underwent 5/6 nephrectomy or shame surgery were randomly assigned into two groups, i.e., the control and the telbivudine groups, in which the control group received saline treatment, and rats in the telbivudine group received telbivudine (10 mg/mL/Kg) treatment for 8 or 12 weeks. Animals were then sacrificed, and kidney and heart biopsy samples were obtained. In this example, to evaluate the therapeutic function of telbivudine, animals were first subject to 5/6 nephrectomy to induce in vivo kidney failure before being treated with telbivudine. 5/6 nephrectomy is a procedure in which one kidney of a test animal is removed and 2/3 of the remaining kidney is ablated, thereby mimics the progressive renal failure after loss of renal mass in humans. Briefly, approximately 50% of the remaining kidney of the rat was removed by polar excision 1-2 weeks after uni-nephrectomy. Then, the animals were randomly assigned to two groups, the telbivudine group and the control group. […] Blood and urine samples were respectively collected on designated days and analyzed for the levels of blood urine nitrogen (BUN), serum creatine (CR), and hepatic enzymes (i.e., alanine aminotransferase (ALT) and aspartate aminotransferase (AST)). Heart function was determined by monitoring the changes in diastolic parameter-Tissue Velocity Imaging ([…] ratio, and the strain in cardia muscle (C_strain), left ventrical mass ([…]). Animals were sacrificed after the experiments were finished, and kidney biopsy samples were obtained.

CKD rats [2] = assay: Kidney fibrosis in kidney samples of CKD rats; format: in vivo, Sprague Dawley rats
Protocol: Sprague Dawley rats (7 weeks old) were kept in pathogen-free environment under 12:12 light-dark cycle with food and water provided ad libitum, ambient temperature and relative humidity were respectively set at 24±2° C. and 50±20%. All procedures involving animal studies of the present disclosure comply with the “Guideline for the Care and Use of Laboratory Animals” issued by The Chinese-Taipei Society of Laboratory Animal Sciences. SD rats (about 10 weeks old) scheduled to undergo 5/6 nephrectomy or sham surgery were anesthetized by Zoletil 50/Xylazine (6 mg/1.3 mg/Kg, i.p.). Then, the left kidney was exposed, and the upper and lower poles were tied with a suture line, followed by right nephrectomy. The peritoneum and skin were then sutured, and the animals were returned to their individual cages. For animals underwent sham surgery, the left kidney was exposed in similar manner, but was then placed back into the abdominal cavity without further treatment, peritoneum and skin were then sutured. Two weeks after sham or 5/6 nephrectomy surgery, the animals were subjected to a 24-hour urine collection and non-invasive tail blood pressure measurement every 4 weeks. Four weeks after the surgery, rats underwent 5/6 nephrectomy or shame surgery were randomly assigned into two groups, i.e., the control and the telbivudine groups, in which the control group received saline treatment, and rats in the telbivudine group received telbivudine (10 mg/mL/Kg) treatment for 8 or 12 weeks. […] Blood and urine samples were respectively collected on designated days and analyzed for the levels of blood urine nitrogen (BUN), serum creatine (CR), and hepatic enzymes (i.e., alanine aminotransferase (ALT) and aspartate aminotransferase (AST)). Heart function was determined by monitoring the changes in diastolic parameter-Tissue Velocity Imaging ([…] ratio, and the strain in cardia muscle (C_strain), left ventrical mass ([…]). Animals were sacrificed after the experiments were finished, and kidney biopsy samples were obtained.

[3] = system: IL-6, TGF-β, TIMP1 and COL-1-A1 in kidney tissue of CKD rats; assay: Quantitative RT-PCR of inflammatory genes in kidney tissue of CKD rats; format: in vivo, Sprague Dawley rats
Protocol: (§1) SD rats (about 10 weeks old) scheduled to undergo 5/6 nephrectomy or sham surgery were anesthetized by Zoletil 50/Xylazine (6 mg/1.3 mg/Kg, i.p.). Then, the left kidney was exposed, and the upper and lower poles were tied with a suture line, followed by right nephrectomy. The peritoneum and skin were then sutured, and the animals were returned to their individual cages. […] Two weeks after sham or 5/6 nephrectomy surgery, the animals were subjected to a 24-hour urine collection and non-invasive tail blood pressure measurement every 4 weeks. Four weeks after the surgery, rats underwent 5/6 nephrectomy or shame surgery were randomly assigned into two groups, i.e., the control and the telbivudine groups, in which the control group received saline treatment, and rats in the telbivudine group received telbivudine (10 mg/mL/Kg) treatment for 8 or 12 weeks. Animals were then sacrificed, and kidney and heart biopsy samples were obtained.
Total RNA was extracted from fresh frozen renal and heart tissues using the Trizol Reagent (Life Technologies), according to the manufacturer protocol. Briefly, renal cortex or heart tissue (150 mg) was homogenized with 1 ml Trizol, and RNA-containing aqueous phase was obtained by centrifugation. Following the precipitation of RNA by centrifugation with 0.5 volume isopropanol and purification with 75% ethanol, the extracted total RNA was dissolved in 80 μL nuclease-free deionized distilled water and stored at −20° C. The concentration and purity of RNA were determined by Nanodrop Spectrophotometer (Thermo Scientific). First-strand cDNAs were synthesized from template RNA (1 μg) using Transcriptor First Strand cDNA Synthesis Kit (Roche), according to the manufacturer's protocol. Real-time PCR was performed using 2 μL template in a 20-μL reaction containing 1 μM of each primer and 10 μLLightCyclerFastStartUniversal SYBR Green Master (ROX) (Roche). […]
(§2) 5/6 nephrectomy is a procedure in which one kidney of a test animal is removed and 2/3 of the remaining kidney is ablated, thereby mimics the progressive renal failure after loss of renal mass in humans. […] Blood and urine samples were respectively collected on designated days and analyzed for the levels of blood urine nitrogen (BUN), serum creatine (CR), and hepatic enzymes (i.e., alanine aminotransferase (ALT) and aspartate aminotransferase (AST)). Heart function was determined by monitoring the changes in diastolic parameter—Tissue Velocity Imaging (TVI_V), E/A ratio, and the strain in cardia muscle (C_strain), left ventrical mass (LVMASS). […]

[4] = system: IL-6, TGF-β, TIMP1 and COL-1-A1 in kidney tissue of CKD rats; assay: Western blot of inflammatory proteins in kidney tissue of CKD rats; format: in vivo, Sprague Dawley rats
Protocol: as §1
For protein identification, 30 μg nuclear extracted protein was loaded in each lane of the SDS-PAGE gel (8%) and separated by electrophoresis. The separated proteins were then electro-transferred to polyvinylidene fluoride (PVDF) membranes (GE Healthcare Bio-Sciences, Little Chalfont, UK), and blocked with 5% fat-free skim milk in TRIS-buffered saline containing 0.01% Tween-20 for 60 min at room temperature. The membrane was then incubated with rabbit polyclonalanti-IL-6, TGF-β, TIMP-1 and COL1-1 (diluted 1:1000 in PBS/5% skim milk; Novus. Biologicals) antibodies overnight at 4, respectively. HRP conjugated anti-rabbit IgG (Promega) was then used as secondary antibody. Immunoreactive protein was visualized by the chemiluminescence protocol (ECL, GE HealthcareBio-Sciences). Anti-actin rabbit polyclonal antibody (1:1000; Sigma-Aldrich) was used for calibration.
as §2, with “humans. Briefly, approximately 50% of the remaining kidney of the rat was removed by polar excision 1-2 weeks after uni-nephrectomy. Then, the animals were randomly assigned to two groups, the telbivudine group and the control group.” for “humans.”

CKD rats [5] = assay: Heart fibrosis in CKD rats; format: in vivo, Sprague Dawley rats; conditions: heart tissue of CKD rats, telbivudine-treated vs untreated (FIG. 5)
Protocol: (§3) SD rats (about 10 weeks old) scheduled to undergo 5/6 nephrectomy or sham surgery were anesthetized by Zoletil 50/Xylazine (6 mg/1.3 mg/Kg, i.p.). Then, the left kidney was exposed, and the upper and lower poles were tied with a suture line, followed by right nephrectomy. The peritoneum and skin were then sutured, and the animals were returned to their individual cages. […] Two weeks after sham or 5/6 nephrectomy surgery, the animals were subjected to a 24-hour urine collection and non-invasive tail blood pressure measurement every 4 weeks. […]
as §2

CKD rats [6] = assay: Cardiac muscle strain measurement by heart ultrasound in CKD rats; format: in vivo, Sprague Dawley rats; conditions: vs control animals
Protocol: SD rats (about 10 weeks old) scheduled to undergo 5/6 nephrectomy or sham surgery were anesthetized by Zoletil 50/Xylazine (6 mg/1.3 mg/Kg, i.p.). Then, the left kidney was exposed, and the upper and lower poles were tied with a suture line, followed by right nephrectomy. The peritoneum and skin were then sutured, and the animals were returned to their individual cages. For animals underwent sham surgery, the left kidney was exposed in similar manner, but was then placed back into the abdominal cavity without further treatment, peritoneum and skin were then sutured. Two weeks after sham or 5/6 nephrectomy surgery, the animals were subjected to a 24-hour urine collection and non-invasive tail blood pressure measurement every 4 weeks. […] Once the animal became unconscious, it was then connected to heart ultrasound machine (Vivid i, General Electric Company, US) and heart function paraments including changes in diastolic parameter-Tissue Velocity Imaging (TVI_V) and E/A ratio, the strain in cardia muscle (C_strain), and left ventrical mass ([…]) were respectively measured. […] Blood and urine samples were respectively collected on designated days and analyzed for the levels of blood urine nitrogen (BUN), serum creatine (CR), and hepatic enzymes (i.e., alanine aminotransferase (ALT) and aspartate aminotransferase (AST)). […]

[7] = system: IL-6 and COL-1-A1 in heart tissue of CKD rats; assay: Quantitative RT-PCR of IL-6 and COL-1-A1 in heart tissue of CKD rats; format: in vivo, Sprague Dawley rats
Protocol: as §3
Total RNA was extracted from fresh frozen renal and heart tissues using the Trizol Reagent (Life Technologies), according to the manufacturer protocol. […] The concentration and purity of RNA were determined by Nanodrop Spectrophotometer (Thermo Scientific). […]
as §2, with “(AST)).” for “(AST)). Heart function was determined by monitoring the changes in diastolic parameter—Tissue Velocity Imaging (TVI_V), E/A ratio, and the strain in cardia muscle (C_strain), left ventrical mass (LVMASS).”

[8] = system: IL-6 and COL-1-A1 in heart tissue of CKD rats; assay: Western blot of IL-6 and COL-1-A1 in heart tissue of CKD rats; format: in vivo, Sprague Dawley rats
Protocol: as §3, §2

CKD rats [9] = assay: Uremic toxins (indoxyl sulfate, P-cresyl sulfate) in serum of CKD rats; format: in vivo, Sprague Dawley rats; conditions: serum collected from CKD rats
Protocol: as §1
(§4) 5/6 nephrectomy is a procedure in which one kidney of a test animal is removed and 2/3 of the remaining kidney is ablated, thereby mimics the progressive renal failure after loss of renal mass in humans. Briefly, approximately 50% of the remaining kidney of the rat was removed by polar excision 1-2 weeks after uni-nephrectomy. Then, the animals were randomly assigned to two groups, the telbivudine group and the control group. Rats in the telbivudine group were orally fed with telbivudine (at a dosage of 100 mg/Kg) for 4, 8 or 12 weeks, while the animals in the control group were given just the water. Blood and urine samples were respectively collected on designated days and analyzed for the levels of blood urine nitrogen (BUN), serum creatine (CR), and hepatic enzymes (i.e., alanine aminotransferase (ALT) and aspartate aminotransferase (AST)). Heart function was determined by monitoring the changes in diastolic parameter—Tissue Velocity Imaging (TVI_V), E/A ratio, and the strain in cardia muscle (C_strain), left ventrical mass (LVMASS). Animals were sacrificed after the experiments were finished, and kidney biopsy samples were obtained.
Indoxyl sulfate (IS) and P-cresyl sulfate (PCS) are uremic toxins that accumulate in the serum of CKD patients, and are known factors for causing heart problems in the CKD subjects.

CKD rats [10] = system: CKD rats; set-up: species or system Sprague Dawley rats; conditions: rat, in vivo
Text: as §4
In this example, the effect of telbivudine on liver function was investigated.

[11] = telbivudine orally 100 mg/Kg for 8 weeks, vs untreated CKD
[12] = telbivudine orally 100 mg/Kg for 12 weeks

`Cc1cn([C@@H]2C[C@@H](O)[C@H](CO)O2)c(=O)[nH]c1=O` [telbivudine] was tested, and the “level of BUN (blood urine nitrogen)” value (CKD rats [1]; [11]) was “significant reduction”, the “level of CR (serum creatine)” value (CKD rats [1]; [11]) was “significant reduction” and the “level of BUN (blood urine nitrogen)” value (CKD rats [1]; [12]) was “most significant”. For the same molecule, the “level of CR (serum creatine)” value (CKD rats [1]; [12]) was “most significant”, the “decrease of extent of kidney fibrosis” value (CKD rats [2]; telbivudine treatment for 8 weeks (FIG. 2 panel D)) was “about 62.4%” and the “decrease of extent of kidney fibrosis” value (CKD rats [2]; telbivudine treatment for 12 weeks (FIG. 2 panel D)) was about 79.2%. The “extent of kidney fibrosis (photographs)” value (CKD rats [2]; telbivudine-treated vs untreated (FIG. 2 panel B vs C)) was “significantly reduced”, the “mRNA level of COL-1-A1” value [3] was “reduced” and the “mRNA level of IL-6” value [3] was “reduced”. For the same molecule, the “mRNA level of TGF-β” value [3] was “reduced”, the “mRNA level of TIMP1” value [3] was “reduced” and the “protein level of COL-1-A1” value [4] was “reduced”. The “protein level of IL-6” value [4] was “reduced”, the “protein level of TGF-β” value [4] was “reduced” and the “protein level of TIMP1” value [4] was “reduced”. The “extent of fibrotic tissues in heart” value (CKD rats [5]) was “markedly reduced”, the “C-strain values (strain in cardia muscle)” value (CKD rats [6]; CKD animals treated with telbivudine for 8 weeks) was “significant improvement” and the “C-strain values (strain in cardia muscle)” value (CKD rats [6]; CKD animals treated with telbivudine for 12 weeks) was “significant improvement”. For the same molecule, the “mRNA level of COL-1-A1” value [7] was “markedly reduced”, the “mRNA level of IL-6” value [7] was “markedly reduced” and the “protein level of COL-1-A1” value [8] was “markedly reduced”. The “protein level of IL-6” value [8] was “markedly reduced”, the “free level of Indoxyl sulfate (IS)” value (CKD rats [9]) was “effectively reduced” and the “free level of P-cresyl sulfate (PCS)” value (CKD rats [9]) was “effectively reduced”. For the same molecule, the “total level of Indoxyl sulfate (IS)” value (CKD rats [9]) was “effectively reduced”, the “total level of P-cresyl sulfate (PCS)” value (CKD rats [9]) was “effectively reduced” and the “level of alanine aminotransferase (ALT)” value (CKD rats [10]) was “remained relatively the same”. The “level of aspartate aminotransferase (AST)” value (CKD rats [10]) was “remained relatively the same” and the “toxic effects toward liver function” value (CKD rats [10]) was “does not possess any toxic effects”.
